Data reported in patent publication US20250382361A1, “AFFIBODIES, HYDROGELS CONTAINING AFFIBODIES, AND USES THEREOF” (University of Oregon, priority 2024, published 2025).
Where two headings read alike, the source gives them in different places.

Assays:
HUVECs [1] = assay: VEGF bioactivity HUVEC proliferation assay (CellTiter-Glo); type: cell-based, human; details: VEGF for 96 hours
HUVECs [2] = assay: Endothelial tube formation assay; type: cell-based, human
Procedure: Human umbilical vein endothelial cells (HUVECs) were seeded in tissue culture flasks at 2,500 cells/cm^2 and cultured in complete Endothelial Growth Medium (Lonza, Walkersville, MD) at 37° C. and 5% CO2. Upon reaching 60-80% confluence, cells were washed with PBS, trypsinized, and seeded at 5,000 or 15,000 cells/well onto 96-well plates pre-coated with 100 μL of Cultrex Reduced Growth Factor Basement Membrane Extract (RGF BME, R&D Systems). HUVECs were allowed to adhere to the coated surface for 2 hours. […] Cells were cultured for 48 hours on a BioTek Lionheart FX automated microscope (Agilent Technologies, Santa Clara, CA) at 37° C. and 5% CO2 with 4× phase contrast time lapse images taken at 4, 8, 12, 16, 20, 24, and 48 hours. Total network length and branching of HUVEC networks were measured from images using the Angiogenesis Analyzer plugin for ImageJ.
Responses of HUVECs to each of the three growth factors of interest were first studied.

antithrombin-III = antithrombin-III (Homo sapiens, UniProt P01008); details: cited from earlier work
integrin α5β1 = integrin α5β1 (Homo sapiens, UniProt P05556+P08648); details: cited from earlier work
VEGF165 = target: T1, VEGF165 (Homo sapiens, UniProt P15692); details: cited from earlier work
T1 construct: biotin (label as supplied by the vendor); purchased Acro Biosystems
T1 sequence (P15692 1-191 isoform P15692-4): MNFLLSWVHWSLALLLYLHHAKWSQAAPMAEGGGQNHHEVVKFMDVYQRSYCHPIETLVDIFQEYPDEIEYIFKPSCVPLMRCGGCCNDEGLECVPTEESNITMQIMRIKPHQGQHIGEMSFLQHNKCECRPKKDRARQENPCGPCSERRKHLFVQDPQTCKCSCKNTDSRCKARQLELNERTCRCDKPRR

[3] = target: fibroblast growth factor-1 (Homo sapiens, UniProt P05230); details: cited from earlier work
[4] = target: PDGF receptor beta (PDGFRβ) on NIH/3T3-Luc cells (UniProt P05622 32-1098, limits assumed); assay: cell-based or functional assay
[5] = target: T2, Recombinant human BMP-2 (bone morphogenetic protein 2) (human, UniProt P12643 283-396, biotinylated with Sulfo-NHS-Biotin (bBMP-2) in flow cytometry and BLI); assay: flow cytometry, yeast-displayed affibody titrated with bBMP-2 0.5-1000 nM
T2 construct: Bought protein; also called bBMP-2; bBMP
From the text: Yeast clones with names starting with the letter A were identified using the gating approach in FIG. 2A, and yeast clones with names starting with B were identified using the gate approach in FIG. 2B. The affibodies chosen for further characterization are boxed in the legend.

[6] = target: T3, Recombinant VEGF165 (vascular endothelial growth factor) (UniProt P15692-4 27-191, biotinylated (bVEGF) in flow cytometry and BLI); assay: biolayer interferometry, 25 nM bVEGF on streptavidin probes, soluble affibody 15.625-125 nM
T3 construct: also called VEGF-A (165); bVEGF
Procedure: All samples were diluted in PBS solution containing 0.05% Tween-20® (PBST). […] Dissociation constants were obtained from a 1:1 global curve fitting of the data. n=4.

NIH/3T3-Luc cells = assay: PDGF bioactivity luciferase reporter assay; type: cell-based; details: PDGF for 5 hours
Procedure: NIH/3T3 fibroblast cells (ATCC) were thawed, seeded at 10,000 cell/cm^2, and expanded in growth medium consisting of DMEM containing 10% (v/v) fetal bovine serum (R&D Systems, Minneapolis, MN). Cultures were routinely maintained at 37° C. and 5% CO2 and passaged at 60-70% confluence. After three passages of expansion, NIH/3T3 cells were grown in Eagle's Minimal Essential Medium (EMEM, ATCC) for a single passage prior to transfection. Transfection mixtures were prepared according to the manufacturer's protocols. Briefly, 2500 ng of luciferase reporter plasmid pGL4.33 [luc2P/SRE/Hygro] […]
NIH/3T3-Luc cells were seeded at 31,250 cells/cm^2 and incubated in 100 μL of growth medium overnight in 96 well plates. […] Luminescence was then measured using SpectraMax 13 plate reader (Molecular Devices, San Jose, CA).
PDGF bioactivity was assessed using NIH/3T3 cells transfected with a firefly luciferase gene reporter plasmid that links multiple ERK1/2 signaling pathways, including PDGFRβ signaling, to luciferase expression through a serum response element under the regulation of ERK1/2 (FIG. 30A). […] Firefly luciferase expression was assessed via the conversion of 5′-fluoroluciferin to oxyfluoroluciferin, which generates a stable luminescent output correlated to firefly luciferase concentration. […]

T2 sequence (P12643 283-396 limits assumed): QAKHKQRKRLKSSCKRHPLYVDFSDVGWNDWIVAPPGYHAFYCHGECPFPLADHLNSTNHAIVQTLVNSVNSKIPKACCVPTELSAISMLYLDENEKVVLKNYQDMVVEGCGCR
Sequence of PDGF receptor beta (PDGFRβ) on NIH/3T3-Luc cells (P05622 32-1098 limits assumed): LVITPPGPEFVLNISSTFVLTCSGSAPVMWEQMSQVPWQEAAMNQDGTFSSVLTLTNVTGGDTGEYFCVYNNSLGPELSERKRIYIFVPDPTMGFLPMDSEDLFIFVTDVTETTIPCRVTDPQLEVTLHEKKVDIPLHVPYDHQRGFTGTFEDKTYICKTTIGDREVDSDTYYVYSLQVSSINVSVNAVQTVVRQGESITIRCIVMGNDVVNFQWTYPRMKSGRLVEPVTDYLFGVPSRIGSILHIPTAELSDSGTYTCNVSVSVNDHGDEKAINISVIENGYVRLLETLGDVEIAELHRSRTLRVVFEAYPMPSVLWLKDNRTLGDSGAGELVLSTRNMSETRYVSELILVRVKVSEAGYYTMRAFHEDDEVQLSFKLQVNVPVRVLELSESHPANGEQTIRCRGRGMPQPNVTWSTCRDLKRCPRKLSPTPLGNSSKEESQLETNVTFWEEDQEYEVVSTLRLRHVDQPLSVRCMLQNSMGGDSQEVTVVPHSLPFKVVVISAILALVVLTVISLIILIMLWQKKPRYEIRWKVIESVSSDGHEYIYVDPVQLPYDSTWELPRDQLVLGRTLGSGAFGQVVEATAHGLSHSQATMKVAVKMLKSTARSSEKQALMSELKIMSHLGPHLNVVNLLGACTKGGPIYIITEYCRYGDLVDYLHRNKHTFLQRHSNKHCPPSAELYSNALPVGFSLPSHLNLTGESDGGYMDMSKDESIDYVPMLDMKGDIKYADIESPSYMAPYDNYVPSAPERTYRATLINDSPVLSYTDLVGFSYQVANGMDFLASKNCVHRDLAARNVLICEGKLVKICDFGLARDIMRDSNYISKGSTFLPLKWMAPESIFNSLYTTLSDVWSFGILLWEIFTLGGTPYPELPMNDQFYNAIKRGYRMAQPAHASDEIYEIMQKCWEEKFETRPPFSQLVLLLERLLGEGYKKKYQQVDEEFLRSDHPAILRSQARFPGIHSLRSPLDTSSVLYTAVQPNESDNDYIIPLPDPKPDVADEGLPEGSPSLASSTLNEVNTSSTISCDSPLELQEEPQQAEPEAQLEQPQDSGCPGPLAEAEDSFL
Sequence of fibroblast growth factor-1 (P05230 whole entry, species assumed): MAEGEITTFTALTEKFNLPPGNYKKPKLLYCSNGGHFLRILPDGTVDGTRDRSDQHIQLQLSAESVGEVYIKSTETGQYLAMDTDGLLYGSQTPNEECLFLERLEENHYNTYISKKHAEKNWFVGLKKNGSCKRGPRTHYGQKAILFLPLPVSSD
Sequence of integrin α5β1 (P08648 42-894 limits assumed): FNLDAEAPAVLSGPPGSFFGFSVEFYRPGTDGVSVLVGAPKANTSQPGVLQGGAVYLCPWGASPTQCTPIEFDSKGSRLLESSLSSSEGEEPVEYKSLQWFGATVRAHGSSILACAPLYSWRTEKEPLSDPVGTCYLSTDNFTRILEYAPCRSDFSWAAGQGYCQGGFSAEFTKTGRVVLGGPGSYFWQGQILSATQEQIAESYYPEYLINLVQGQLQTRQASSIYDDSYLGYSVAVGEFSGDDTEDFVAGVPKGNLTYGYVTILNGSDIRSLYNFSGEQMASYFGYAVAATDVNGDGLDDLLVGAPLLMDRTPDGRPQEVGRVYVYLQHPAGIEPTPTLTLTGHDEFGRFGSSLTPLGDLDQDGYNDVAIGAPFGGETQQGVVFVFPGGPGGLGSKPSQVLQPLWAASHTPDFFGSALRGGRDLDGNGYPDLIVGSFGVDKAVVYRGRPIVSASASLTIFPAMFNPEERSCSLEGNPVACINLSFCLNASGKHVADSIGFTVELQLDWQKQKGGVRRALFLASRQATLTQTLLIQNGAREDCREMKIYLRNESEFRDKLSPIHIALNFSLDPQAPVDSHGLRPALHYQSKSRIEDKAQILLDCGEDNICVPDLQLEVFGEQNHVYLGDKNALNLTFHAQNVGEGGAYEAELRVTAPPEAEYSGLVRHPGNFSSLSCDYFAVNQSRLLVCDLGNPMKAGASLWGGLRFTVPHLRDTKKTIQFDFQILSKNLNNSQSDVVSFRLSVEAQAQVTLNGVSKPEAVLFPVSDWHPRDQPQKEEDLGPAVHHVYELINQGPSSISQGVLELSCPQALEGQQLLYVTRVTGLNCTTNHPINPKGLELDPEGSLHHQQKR
Sequence of integrin α5β1 (P08648 895-1049 limits assumed): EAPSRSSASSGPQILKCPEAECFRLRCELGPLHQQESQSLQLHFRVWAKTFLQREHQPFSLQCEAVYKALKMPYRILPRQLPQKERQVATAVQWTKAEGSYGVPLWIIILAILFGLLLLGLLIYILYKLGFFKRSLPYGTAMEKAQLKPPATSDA
Sequence of integrin α5β1 (P05556 21-798): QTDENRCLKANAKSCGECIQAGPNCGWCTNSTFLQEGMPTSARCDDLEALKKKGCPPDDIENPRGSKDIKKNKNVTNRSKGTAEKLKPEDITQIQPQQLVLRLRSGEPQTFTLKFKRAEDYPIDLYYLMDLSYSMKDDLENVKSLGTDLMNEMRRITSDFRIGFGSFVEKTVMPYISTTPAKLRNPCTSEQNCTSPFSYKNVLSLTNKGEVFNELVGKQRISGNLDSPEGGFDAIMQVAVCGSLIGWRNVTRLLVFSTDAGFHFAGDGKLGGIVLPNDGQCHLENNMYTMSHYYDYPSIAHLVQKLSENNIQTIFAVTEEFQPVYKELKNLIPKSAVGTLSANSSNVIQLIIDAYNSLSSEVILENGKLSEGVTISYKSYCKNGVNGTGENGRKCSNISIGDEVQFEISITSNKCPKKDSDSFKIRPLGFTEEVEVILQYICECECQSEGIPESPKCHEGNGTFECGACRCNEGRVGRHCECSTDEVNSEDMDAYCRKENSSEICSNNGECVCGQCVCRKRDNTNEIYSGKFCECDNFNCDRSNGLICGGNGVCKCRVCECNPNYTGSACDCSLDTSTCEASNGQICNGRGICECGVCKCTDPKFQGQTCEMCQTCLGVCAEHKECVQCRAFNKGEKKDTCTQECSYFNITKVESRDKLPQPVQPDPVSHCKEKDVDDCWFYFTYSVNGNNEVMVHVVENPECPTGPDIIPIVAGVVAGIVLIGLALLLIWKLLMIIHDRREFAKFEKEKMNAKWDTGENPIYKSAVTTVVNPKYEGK
Sequence of antithrombin-III (P01008 33-464, species assumed): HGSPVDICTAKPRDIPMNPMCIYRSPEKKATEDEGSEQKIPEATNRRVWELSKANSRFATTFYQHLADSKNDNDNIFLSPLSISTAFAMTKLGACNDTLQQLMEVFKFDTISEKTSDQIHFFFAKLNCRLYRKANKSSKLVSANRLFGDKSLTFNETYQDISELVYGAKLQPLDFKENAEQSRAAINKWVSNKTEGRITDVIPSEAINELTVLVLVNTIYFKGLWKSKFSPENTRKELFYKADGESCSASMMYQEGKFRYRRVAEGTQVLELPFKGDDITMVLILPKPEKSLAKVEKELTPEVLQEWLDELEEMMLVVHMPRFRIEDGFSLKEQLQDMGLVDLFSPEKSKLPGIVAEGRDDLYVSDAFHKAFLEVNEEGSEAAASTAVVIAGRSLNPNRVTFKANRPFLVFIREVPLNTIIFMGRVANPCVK

VEGF
maximum response (HUVECs [1]): approximately 36,000 relative luminescent units (RLUs) | HUVEC network length and branching (HUVECs [2]): limited impact

FGF-2: Recombinant FGF-2 (PeproTech)
HUVEC network length and branching (HUVECs [2]; 5, 10, or 50 ng/mL): limited impact

heparin
Kd (antithrombin-III): 163 nM | Kd (integrin α5β1): 2040 nM | Kd (VEGF165): 165 nM | Kd [3]: 461 nM

B1: Recombinant human PDGF-BB (platelet-derived growth factor) (ligand, UniProt P01127 82-190, looked up)
chain: SLGSLTIAEPAMIAECKTRTEVFEISRRLIDRTNANFLVWPPCVEVQRCSGCCNNRNVQCRPTQVQLRPVQVRKIEIVRKKPIFKKATVTLEDHLACKCETVAAARPVT
modifications: biotinylated (bPDGF) in flow cytometry and off-target BLI; not biotinylated in the Ni-NTA BLI
50% effective dose (EC50), luminescence of NIH/3T3-Luc reporter cells [4]: 2.94 ng/mL

B2: Moderate Affinity BMP-2 affibody A2-2 (SEQ ID NO: 2), yeast-displayed (designed binder)
chain: AEAKYAKEQFNAYVVIFYLPNLTASQKAAFVDALSNDPSQSSELLSEAKKLNDSQAPK
EC50 (read off the curve) [5]: ~20 nM

B3: BMP-2 affibody A3-2 (SEQ ID NO: 9), yeast-displayed (designed binder)
chain: B2 chain
EC50 (read off the curve) [5]: ~10 nM

B4: Moderate Affinity BMP-2 Affibody, soluble, with hexahistidine tag and C-terminal cysteine (SEQ ID NO: 72) (designed binder)
chain: AEAKYAKEQFNAYVVIFYLPNLTASQKAAFVDALSNDPSQSSELLSEAKKLNDSQAPKHHHHHHC
notes: E. coli-expressed; also called A2-2
binding result [6]: no binding (tested: 125 nM)

B5: PDGF: Recombinant PDGF-BB (PeproTech) (protein)
chain: B1 chain
maximal response (NIH/3T3-Luc cells): 23,655 relative luminescent units (RLUs) | HUVEC network length and branching (HUVECs [2]; 5, 10, or 50 ng/mL): limited impact
